Source: patent US20100204149A1, “USE OF OCTREOTIDE AS A THERAPEUTIC AGENT” (priority 2007, published 2010)

Experiments:
[1] = Cytotoxicity (MTS cell viability) in HIV-1 assay; conditions: human, CEM-SS cells
[2] = system: Human Peripheral Blood Mononuclear Cells (PBMC); conditions: T cell proliferation; peptide 10 micrograms per ml; 3 days
Procedure: Human Peripheral Blood Mononuclear Cells (PBMC) were obtained from normal human donors. The T cell proliferation was induced by stimulation of the cells with the T cell mitogen phytohemagglutinin (PHA), either in the absence (positive proliferation control), or in the presence of test peptide—10 micrograms per ml—to examine their effects on the T cell proliferating response. 10^5/well PBMC were plated in 96-well microtiter plates and assayed in duplicate with the peptide. Cell cultures were incubated at 37° C. for 3 days in a 5% CO2 incubator and were thereafter pulsed with 1 microCi/well ^3H-thymidine for additional 12 hours of culture. At the end of incubation time, the plates were harvested and the cells counted by liquid scintillation for the incorporation of ^3H-thymidine as a measure of T cell proliferation.

[3] = system: Pseudomonas aeruginosa; assay: Pseudomonas aeruginosa assay; format: cell-based; conditions: peptide 10 micrograms per ml, read visually
Procedure: The antibacterial assay was conducted using clear, U-bottom 96-well microtiter plates. Cation-adjusted Mueller-Hinton Broth (MHB) was used for testing Pseudomonas aeruginosa. The peptide of the invention (0.1 ml of each—10 micrograms per ml—) was dispensed into wells in duplicate. Then the wells were inoculated with 5×10^5 CFU/mL Pseudomonas aeruginosa in 0.1 ml volume. For control purposes, each plate included 4 wells containing media without bacterial inoculum and 4 wells containing medium with inoculum but without peptide. The plates were incubated for 12 h at 37° C., and read visually 18-24 hours post-incubation. Growth control of Pseudomonas aeruginosa was examined first to determine adequacy of media preparations and growth conditions. Acceptable growth is defined as ≧2 mm wide button of cells at the bottom of each sample well, or obvious turbidity in the culture supernatant. Test wells were examined and scored as positive/negative for activity. A positive score for activity is based on complete inhibition of macroscopic growth of the test Pseudomonas aeruginosa.

[4] = Cytotoxicity testing in MRC-5 cells (CellTiter 96); format: cell-based; conditions: human, MRC-5 cells (embryonal lung fibroblasts); MRC-5 cells; 6 days incubation; read-out: % Cell viability
Procedure: For cytotoxicity testing, MRC-5 cells were seeded at 2,500 cells/well in 96 well plates using growth medium. […] The following day, peptide was added and tested in duplicates. After a 6 days incubation period, cell viability was measured using CellTiter 96 Solution (Promega). Plates were incubated for additional 4 hours at 37° C.

[5] = system: HUVEC; assay: Endothelial tube formation assay; format: cell-based, human; conditions: peptide 10 micrograms per ml, 20 hours
Procedure: The endothelial tube formation assay is based on the ability of endothelial cells to form three-dimensional capillary-like tubular structures when cultured on a gel of basement membrane extract. The endothelial tube formation assay represents a powerful model for studying inhibition and induction of angiogenesis. Pre-labeled HUVEC with Calcein AM were seeded in a 96-well culture plate coated with extracellular metrix (Chemicon international Cat. ECM625) and treated with test peptide—10 micrograms per ml—in full growth medium. […] control was vehicle only. The endothelial cells were allowed to form tubes for 20 hours and were then examined under an inverted fluorescent microscope. Duplicate wells for each treatment were photographed and quantitatively analyzed for an average tubule length using image analysis software ImageProPlus. Raw data were expressed as average tubule lengths in pixels ±standard deviation. Statistic p values were computed using the Student's t-test.

[6] = system: Human A549 cells; assay: Apoptosis induction assay (Annexin-5); format: cell-based; conditions: peptide 10 micrograms per ml, 24 hours
Description: Human A549 cells (carcinomic human alveolar basal epithelial cells) were utilized in the experiments employing the Annexin-5 apoptosis assay. Annexin-5 is a member of a highly conserved protein family that binds acidic phospholipids in a calcium-dependent manner. […] Phosphatidylserine is translocated from the inner side of the plasma membrane to the outer layer when cells undergo death by apoptosis or cell necrosis and serves as a signal by which cell destined for death are recognized by phagocytes. Test peptide—10 micrograms per ml—were exposed for 24 hours to the A549 cells before they were analyzed for signs of apoptosis.

[7] = system: Human A549 cells; assay: Propidium iodide cell cycle assay; format: cell-based; conditions: peptide 10 micrograms per ml, 24 hours
Description: Human A549 cells (carcinomic human alveolar basal epithelial cells) were utilized in the experiments employing the Propidium iodide cell cycle assay. The eukaryotic cell cycle is a series of events that take place in a cell leading to its replication. The regulation of the cell cycle involves steps crucial to the cell, including detecting and repairing genetic damage, and provision of various checks to prevent uncontrolled cell division. The molecular events that control the cell cycle are ordered and directional; that is, each process occurs in a sequential fashion. The cell cycle consists of four distinct phases: G1 phase, S phase, G2 phase (collectively known as interphase) and M phase. M phase is itself composed of two tightly coupled processes: mitosis, in which the cell's chromosomes are divided between the two daughter cells, and cytokinesis, in which the cell's cytoplasm divides forming distinct cells. Activation of each phase is dependent on the proper progression and completion of the previous one. Cells that have temporarily or reversibly stopped dividing are said to have entered a state of quiescence called Go phase. The relatively brief M phase consists of nuclear division and cytoplasmic division. The first phase within interphase, from the end of the previous M phase till the beginning of DNA synthesis is called G1 (G indicating gap or growth). During this phase the biosynthetic activities of the cell resume at a high rate. This phase is marked by synthesis of various enzymes that are required in S phase, mainly those needed for DNA replication. The ensuing S phase starts when DNA synthesis commences; when it is complete, all of the chromosomes have been replicated. The cell then enters the G2 phase, which lasts until the cell enters mitosis. Significant protein synthesis occurs during this phase, mainly involving the production of microtubules, which are required during the process of mitosis. […]
Propidium iodide is an intercalating agent and a fluorescent molecule that can be used to stain DNA. […] After incubation for 40 min at 37° C., cells were analyzed in the FACS.

[8] = system: hepatitis B virus (HBV) ayw strain; assay: HBV replication assay, secreted HBV DNA by TaqMan PCR; format: cell-based; conditions: HepG2-2.2.15; peptide 10 micrograms per ml; six days; HBV DNA in supernatant
[9] = system: RAW 264.7 cells; assay: Phagocytosis assay with Fluorescein-labeled Escherichia coli; format: cell-based, mouse; conditions: peptide 10 micrograms per ml
Procedure: RAW 264.7 (Mouse leukaemic monocyte macrophage cell line) cells were obtained from ATCC and grown in RPMI 1640 medium containing 10% FBS. Cells were incubated in 12×75 mm tubes at 37° C. with test peptide—10 micrograms per ml—for 30 min prior to adding Fluorescein-labeled Escherichia coli bacteria as the agent to be ingested. After the cells were incubated for additional 60 min at 37° C. and allowed to ingest the Fluorescein-labeled Escherichia coli bacteria, cells were fixed with 1% paraformaldehyde. The samples were then analyzed by flow cytometry to determine the amount of phagocytosis as a function of brightness (the greater the phagocytic activity, the more fluorescence in the macrophage population). Data are reported as % positive and the mean fluorescence intensity (MFI) of positively stained cells.

In the case of `C[C@@H](O)[C@@H]1NC(=O)[C@H](CCCCN)NC(=O)[C@@H](Cc2c[nH]c3ccccc23)NC(=O)[C@H](Cc2ccccc2)NC(=O)[C@@H](NC(=O)[C@H](N)Cc2ccccc2)CSSC[C@@H](C(=O)N[C@H](CO)[C@@H](C)O)NC1=O` [Octreotide, H-D-Phe-Cys-Phe-D-Trp-Lys-Thr-Cys-L-threoninol], the viability at 10 micrograms per ml [1] was 100%, the “% of PHA induced control” value [2] was 100.0% and the “% inhibition” value [3] was 0.0%. The viability at 144 h [4] was 100%, the “% inhibition of tube formation” value [5] was 8% and the “% of induction” value [6] was 2.6%. The “Cell cycle analysis G0/G1” value [7] was 59.1, the “Cell cycle analysis G2/M” value [7] was 9.2 and the “Cell cycle analysis S” value [7] was 31.8. For the same compound, the “% inhibition of HBV replication in HEP G2 cells” value [8] was 13.4% and the “% of control phagocytosis” value [9] was 105.9%.
